# Results from ChEMBL document CHEMBL1201862, “PubChem BioAssay data set” (2004).
# The source made the active and inactive calls.
# Columns and labels:
# [1] = target: T1, Replicative DNA helicase DnaB (Mycobacterium tuberculosis, UniProt P9WMR3); test: DnaB intein splicing inhibitors, dose response, biochemical, cell-free fluorescence (AID 449749); format: functional
# T1 sequence (P9WMR3 whole entry): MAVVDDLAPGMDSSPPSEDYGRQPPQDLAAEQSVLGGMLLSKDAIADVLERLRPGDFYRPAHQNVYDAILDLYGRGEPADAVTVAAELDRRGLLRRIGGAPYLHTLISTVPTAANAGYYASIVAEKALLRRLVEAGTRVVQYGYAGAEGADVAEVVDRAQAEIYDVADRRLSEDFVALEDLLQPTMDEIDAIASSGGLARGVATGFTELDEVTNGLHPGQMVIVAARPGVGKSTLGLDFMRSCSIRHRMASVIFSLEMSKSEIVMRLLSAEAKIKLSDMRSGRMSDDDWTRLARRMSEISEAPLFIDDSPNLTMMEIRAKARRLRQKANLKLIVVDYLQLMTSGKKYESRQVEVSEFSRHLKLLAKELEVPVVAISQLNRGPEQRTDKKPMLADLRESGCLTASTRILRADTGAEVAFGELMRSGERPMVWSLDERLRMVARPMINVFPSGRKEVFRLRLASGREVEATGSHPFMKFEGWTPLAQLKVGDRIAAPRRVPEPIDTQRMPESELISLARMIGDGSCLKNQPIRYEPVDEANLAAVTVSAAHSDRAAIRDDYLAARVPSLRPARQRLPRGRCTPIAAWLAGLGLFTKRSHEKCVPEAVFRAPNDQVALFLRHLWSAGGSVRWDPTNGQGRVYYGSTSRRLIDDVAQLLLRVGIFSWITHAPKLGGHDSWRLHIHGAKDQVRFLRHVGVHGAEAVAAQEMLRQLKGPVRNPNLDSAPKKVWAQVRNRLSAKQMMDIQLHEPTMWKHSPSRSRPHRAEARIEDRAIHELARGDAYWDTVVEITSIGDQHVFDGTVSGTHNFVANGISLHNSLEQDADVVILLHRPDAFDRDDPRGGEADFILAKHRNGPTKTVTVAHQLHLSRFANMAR
# [2] = target: T2, Protein RecA (Mycobacterium tuberculosis, UniProt P9WHJ3); test: Fluorescence Cell-Free Homogeneous Dose Retest to Identify Inhibitors of RecA-Intein Splicing Activity. [Related pubchem assays (depositor defined):AID2097, AID2223, AID489010, AID492950]; format: functional
# T2 sequence (P9WHJ3 whole entry): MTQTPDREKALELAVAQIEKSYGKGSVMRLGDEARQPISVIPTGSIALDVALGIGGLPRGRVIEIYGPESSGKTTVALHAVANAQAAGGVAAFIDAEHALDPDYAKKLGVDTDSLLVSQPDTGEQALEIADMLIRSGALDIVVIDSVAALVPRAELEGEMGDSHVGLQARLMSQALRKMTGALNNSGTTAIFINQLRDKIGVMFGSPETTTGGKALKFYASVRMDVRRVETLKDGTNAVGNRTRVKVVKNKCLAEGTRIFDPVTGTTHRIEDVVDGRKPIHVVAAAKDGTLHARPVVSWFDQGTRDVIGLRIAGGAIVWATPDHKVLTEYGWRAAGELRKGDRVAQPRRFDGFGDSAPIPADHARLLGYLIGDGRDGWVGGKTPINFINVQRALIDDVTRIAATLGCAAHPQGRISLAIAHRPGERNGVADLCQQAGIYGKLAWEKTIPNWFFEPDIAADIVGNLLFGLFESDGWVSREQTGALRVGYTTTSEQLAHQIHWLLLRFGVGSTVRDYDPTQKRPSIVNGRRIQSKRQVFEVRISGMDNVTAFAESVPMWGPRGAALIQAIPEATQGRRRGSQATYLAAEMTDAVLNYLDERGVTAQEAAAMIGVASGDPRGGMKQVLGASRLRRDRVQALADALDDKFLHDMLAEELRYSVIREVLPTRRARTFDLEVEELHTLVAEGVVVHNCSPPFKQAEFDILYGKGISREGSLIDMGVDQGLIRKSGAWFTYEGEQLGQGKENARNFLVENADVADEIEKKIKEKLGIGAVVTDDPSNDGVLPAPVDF
# [3] = NIH3T3 cell viability loss – ATP luminescence, mouse fibroblasts, counter-screen, dose response (AID 2010); format: functional, cell-based;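 note: cells exposed to compound for about 90 hours before reading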
# [4] = Trypanosoma cruzi growth suppression in host cells – NIH3T3 host cells, beta-gal luminescence, confirmation (AID 2044); format: functional, cell-based;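 note: intracellular parasites grown in NIH/3T3 mouse fibroblasts as host cells; luminescent beta-galactosidase reporter signal from transgenic T. cruzi replicating inside host cells; inhibitors lower the luminescence signal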
# [5] = target: Cytochrome P450 2C19 (Homo sapiens, UniProt P33261); test: Cytochrome panel assay with activity outcomes. Panel member name: p450-cyp2c19 Compounds with AC50 equal or less than 10 uM are considered active; format: functional
# Cytochrome P450 2C19, sequence (P33261 whole entry): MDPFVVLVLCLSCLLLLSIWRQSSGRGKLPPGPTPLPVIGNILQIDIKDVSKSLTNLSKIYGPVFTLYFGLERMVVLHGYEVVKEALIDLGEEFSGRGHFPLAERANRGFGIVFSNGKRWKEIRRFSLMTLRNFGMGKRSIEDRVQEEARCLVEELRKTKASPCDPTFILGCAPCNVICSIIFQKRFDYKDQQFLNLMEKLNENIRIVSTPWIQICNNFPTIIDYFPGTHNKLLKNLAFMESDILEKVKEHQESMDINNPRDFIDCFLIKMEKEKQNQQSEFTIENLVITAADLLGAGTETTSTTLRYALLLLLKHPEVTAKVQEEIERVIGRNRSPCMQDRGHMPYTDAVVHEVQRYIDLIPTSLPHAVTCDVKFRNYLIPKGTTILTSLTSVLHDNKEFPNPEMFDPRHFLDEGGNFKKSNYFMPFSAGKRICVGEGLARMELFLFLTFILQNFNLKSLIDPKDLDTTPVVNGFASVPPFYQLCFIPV
# [6] = tested on: Streptococcus sp. 'group A'; test: Streptococcus pyogenes SK(-)GAS viability under kanamycin – luminescence, BacTiterGlo, confirmation, counter-screen for streptokinase expression inhibitor project, dose response (AID 1900); format: functional, organism-based
# [7] = tested on: Streptococcus; test: GAS UMAA2166 growth inhibition – luminescence, BacTiterGlo, counter-screen for streptokinase expression inhibitor project, dose response (AID 1915); format: functional, organism-based;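 note: potency for reduction of bacterial viability or growth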
# [8] = target: T3, Cytochrome P450 1A2 (Homo sapiens, UniProt P05177);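 note: PubChem cytochrome P450 panel assay, CYP1A2 panel member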
# T3 sequence (P05177 whole entry): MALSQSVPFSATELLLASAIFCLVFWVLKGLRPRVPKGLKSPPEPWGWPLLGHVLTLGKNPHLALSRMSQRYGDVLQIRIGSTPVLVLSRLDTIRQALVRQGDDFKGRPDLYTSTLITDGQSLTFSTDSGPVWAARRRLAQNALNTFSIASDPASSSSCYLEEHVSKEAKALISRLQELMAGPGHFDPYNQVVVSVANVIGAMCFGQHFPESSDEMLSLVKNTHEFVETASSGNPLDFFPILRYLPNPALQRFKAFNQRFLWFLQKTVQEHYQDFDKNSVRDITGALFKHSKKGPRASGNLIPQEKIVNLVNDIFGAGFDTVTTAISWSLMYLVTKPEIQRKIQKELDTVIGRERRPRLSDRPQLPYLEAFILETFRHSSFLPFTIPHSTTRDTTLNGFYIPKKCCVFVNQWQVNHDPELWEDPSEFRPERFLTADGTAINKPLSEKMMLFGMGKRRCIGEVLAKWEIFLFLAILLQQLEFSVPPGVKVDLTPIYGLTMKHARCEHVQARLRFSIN
smiles,measurement,setting,value
CC(C)(C)Nc1nc(Cl)nc(N(C#N)CN2C(=O)c3ccccc3S2(=O)=O)n1,AC50,[1],15.5 µM (active)
same,EC50,[2],18.4 µM (active)
CN1CCC(N(C)S(=O)(=O)c2ccc(NC(=O)COc3cccc(Cl)c3)cc2)CC1,EC50,[3],> 30 µM (not active)
same,EC50,[4],0.268 µM (active)
COc1ccc(NC(=O)N2CCCC3(CCNCC3)C2)cc1,AC50,[5],inconclusive
CCCCCCSc1ccc(-c2nc3ccc(C)cn3c2NCc2ccccc2)cc1OC,EC50,[3],8.59 µM (active)
same,EC50,[4],0.701 µM (active)
O=[N+]([O-])c1c(NCc2ccco2)ccc2nonc12,AC50,[1],8.52 µM (active)
same,EC50,[2],10.1 µM (active)
Cc1cc(C(F)(F)F)c2c(n1)sc1c(O)cc(O)nc12,EC50,[6],27.8 µM (active)
same,EC50,[7],> 150 µM (not active)
COC(=O)[C@@]1(Cc2ccccc2)[C@@H]2C(=CC(=O)[C@H]2CC(=O)C(=O)N(C)C)CN1C(=O)c1ccccc1,AC50,[1],< 0.018 µM (active)
same,EC50,[2],5.12 µM (active)
CC(C)=NO[C@@H](C)c1cn([C@@H]2COC[C@@H]2O)nn1,AC50,[5],inconclusive
O=[N+]([O-])c1ccc2ncccc2c1CCc1c([N+](=O)[O-])ccc2ncccc12,AC50,[8],3.16 µM (inconclusive)
N=C(N)SCCCN,AC50,[5],inconclusive
same,AC50,[8],6.31 µM (inconclusive)
Cc1ccc(C2C(C#N)=C(N)Oc3n[nH]c(-c4cccs4)c32)cc1 (stereo not given),AC50,[1],4.21 µM (active)
same,EC50,[2],1.12 µM (active)
CC1(C)CCC(C)(C)c2c1ccc(O)c2Cc1c(O)ccc2c1C(C)(C)CCC2(C)C,AC50,[8],5.01 µM (inconclusive)
O=[N+]([O-])c1ccc2c(OCc3nnc(-c4ccccc4Br)o3)ncnc2c1,EC50,[3],10.4 µM (active)
same,EC50,[4],0.213 µM (active)
Cc1ccc(C(=O)n2cnc3ccccc32)cc1C,AC50,[1],37.7 µM (active)
same,EC50,[2],124 µM (active)
CC(C)CCN1CCN(C2CCN(c3ccc4c(c3)OCO4)CC2)CC1CCO (stereo not given),EC50,[3],> 60 µM (not active)
same,EC50,[4],1.56 µM (active)
O=C(c1ccc([N+](=O)[O-])s1)N1CCc2ccccc2C1,EC50,[3],> 60 µM (not active)
same,EC50,[4],0.476 µM (active)
CC(C)CN1CCCC(N2CCN(c3cccc(Cl)c3)CC2)C1 (stereo not given),EC50,[3],> 60 µM (not active)
same,EC50,[4],3.19 µM (active)
CS(=O)(=O)Nc1cccc(-c2ccc3ncnc(NC4CCNCC4)c3c2)c1,AC50,[8],31.6 µM (inconclusive)
CCCC(=O)NNC(=O)Nc1ccccc1,AC50,[5]; read-out: AC50,28.2 µM (inconclusive)
CCN(CC)CCNc1c2c(c(C#N)c3nc4ccccc4n13)CCCC2,EC50,[3],> 60 µM (not active)
same,EC50,[4],0.226 µM (active)
C[C@@](N)(C(=O)O)c1ccc(P(=O)(O)O)cc1,AC50,[8],39.8 µM (inconclusive)
Cn1cc(CN2CCCC(CO)(Cc3ccccc3)C2)c2ccccc21 (stereo not given),EC50,[3],> 60 µM (not active)
same,EC50,[4],0.62 µM (active)
COc1ccc(/C=C2\CCCc3c2nc2ccccc2c3C(=O)OCC(=O)c2c(N)n(C)c(=O)n(C)c2=O)cc1,EC50,[3],> 60 µM (not active)
same,EC50,[4],1.05 µM (active)
CCOC(=O)Nc1ccc2c(c1)N(C(=O)CCN(C)C)c1ccccc1S2,EC50,[3],> 60 µM (not active)
same,EC50,[4],1.8 µM (active)
O=C1c2ccccc2C(=O)N1CCSC(=S)N1CCOCC1,AC50,[8],3.16 µM (inconclusive)
O=C(Nc1nc(-c2ccccc2)c(-c2ccccc2)s1)c1ccc(S(=O)(=O)N(CCCl)CCCl)cc1,EC50,[3],> 30 µM (not active)
same,EC50,[4],1.25 µM (active)
N#Cc1cnn(-c2nc(SCc3ccccc3)nc3sc4c(c23)CCCC4)c1N,EC50,[3],> 60 µM (not active)
same,EC50,[4],2.24 µM (active)
O=C(c1c[nH]c(C(=O)C(Cl)(Cl)Cl)c1)c1ccc(F)cc1Cl,AC50,[1],13 µM (active)
same,EC50,[2],4.49 µM (active)
CC1CC(=O)c2cnc(N)nc2C1 (stereo not given),AC50,[5],inconclusive
O=C(c1cccc(C(F)(F)F)c1)C1CCCN(Cc2ncc[nH]2)C1 (stereo not given),AC50,[1],> 380 µM (inactive)
same,EC50,[2],> 380 µM (inactive)
Cc1nc2ncnn2c(O)c1NC(=O)CC12CC3CC(CC(C3)C1)C2,AC50,[5]; read-out: AC50,44.7 µM (inconclusive)
COc1ccccc1NC(=O)CCN1C(=O)C2CC=C(Cl)CC2C1=O (stereo not given),AC50,[5]; read-out: AC50,7.94 µM (inconclusive)
Cc1cc(C)c(C#N)c(Oc2ccc(F)cc2)n1,AC50,[5]; read-out: AC50,39.8 µM (inconclusive)
Cc1ccc(C)c(/N=C2\C(Cl)=C(O)OC2OC(=O)c2ccco2)c1 (stereo not given),AC50,[1],20 µM (active)
same,EC50,[2],9.37 µM (active)
CCOc1ccc(N(C(C)C(=O)N/N=C(\C)c2cccc(NC(=O)c3ccccc3)c2)S(C)(=O)=O)cc1 (stereo not given),AC50,[8],14.1 µM (inconclusive)
COCc1c(Br)c(C)nc(OCC(=O)N/N=C/c2cc(C)n(-c3ccc([N+](=O)[O-])cc3)c2C)c1C#N,EC50,[3],> 60 µM (not active)
same,EC50,[4],1.95 µM (active)
NC(=S)N/N=C/c1ccc(-c2cc(Cl)c(Cl)cc2Cl)o1,EC50,[3],> 60 µM (inconclusive)
same,EC50,[4],0.122 µM (active)
Fc1ccc(N/N=C/c2ccc(N3CCOCC3)cc2)c(F)c1,EC50,[3],> 30 µM (not active)
same,EC50,[4],0.406 µM (active)
CN1CCN(c2ccc([N+](=O)[O-])c3[nH]o[n+](=O)c23)CC1,AC50,[8],0.398 µM (inconclusive)
CCNC(=O)c1ccc(-n2nc(C)cc2-c2ccccc2)cc1,AC50,[8],14.1 µM (inconclusive)
